Laboratory results taken from PubChem BioAssay AID2842 (Southern Research Institute, 2010).
In brackets after ≈: the same amount, converted by molar mass.

test system: M. tuberculosis H37Rv growth inhibition; experiment: Mycobacterium tuberculosis H37Rv growth inhibition, putative kinase inhibitor library, confirmatory dose response (AID 2842);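 note: bacteria incubated one week before Alamar blue readout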

Structure (SMILES) | IC90
O=C(Nc1nnc(-c2ccc(Cl)s2)o1)C1CC1 | 26.8 µg/mL (≈ 99.3 µM)
CC(=O)Nc1ccc2nc(Nc3nc4ccc(C(C)C)cc4s3)sc2c1 | 2 µg/mL (≈ 5.23 µM)
Cc1ccc(C)c(-c2nnc(NC(=O)C3COc4ccccc4O3)o2)c1 (centres undefined) | 1.18 µg/mL (≈ 3.36 µM)
COc1ccc(C)c2sc(N(CCCn3ccnc3)C(=O)Cc3ccccc3)nc12 | 21.1 µg/mL (≈ 50.3 µM)
O=C(Nc1nnc(-c2ccc(Cl)cc2)o1)c1ccccc1F | 0.72 µg/mL (≈ 2.27 µM)
COc1ccc(CCNc2cnnc(NCCc3ccc(OC)cc3)n2)cc1 | 24.5 µg/mL (≈ 64.6 µM)
CCC(CO)Nc1ncnc2c1cnn2-c1ccc(Cl)c(Cl)c1 (centres undefined) | 14.2 µg/mL (≈ 40.5 µM)
O=C(CCSc1ccccc1)Nc1nnc(-c2ccccc2)o1 | 12.9 µg/mL (≈ 39.7 µM)
CCOc1cccc2nc(NC(=O)c3ccc(Oc4ccccc4)cc3)sc12 | 13.7 µg/mL (≈ 35.1 µM)
COc1ccccc1-c1nnc(NC(=O)CCc2ccccc2)o1 | 6.99 µg/mL (≈ 21.6 µM)
Cc1ccc(C)c(-c2nnc(NC(=O)c3ccc(S(=O)(=O)N4CCc5ccccc54)cc3)o2)c1 | 12.4 µg/mL (≈ 26.1 µM)
Cc1ccc(C)c2[nH]c(=O)c(CCNC(=S)NCCn3ccc4ccccc43)cc12 | 3.53 µg/mL (≈ 8.43 µM)
CCOc1cc(-c2nnc(NC(=O)c3cc4ccccc4cc3OC)o2)cc(OCC)c1OCC | 2.68 µg/mL (≈ 5.61 µM)
Cc1cc(NC(=O)/C=C/c2ccc([N+](=O)[O-])s2)no1 | 4.04 µg/mL (≈ 14.5 µM)
O=C(Nc1nnc(-c2cccs2)o1)C1=COCCO1 | 6.18 µg/mL (≈ 22.1 µM)
Cc1cc(C)c2nc(NNC(=O)c3cc4ccccc4oc3=O)sc2c1 | 2.16 µg/mL (≈ 5.91 µM)
COc1ccc(C)c2sc(NNC(=O)c3ccccc3)nc12 | 4.03 µg/mL (≈ 12.9 µM)
O=C(Nc1nnc(-c2cc(Cl)ccc2Cl)o1)C1CC1 | 7.42 µg/mL (≈ 24.9 µM)
CCCC(=O)Nc1nnc(-c2ccccc2)o1 | 22 µg/mL (≈ 95.2 µM)
Fc1cccc2sc(Nc3nnc(-c4ccccc4)o3)nc12 | 9.14 µg/mL (≈ 29.3 µM)

Structure (SMILES) | IC90
CCCCC(=O)Nc1nc(-c2ccccc2)c(C(C)=O)s1 | 13.7 µg/mL (≈ 45.4 µM)
Cc1ccc(N=C2NC(=O)C(Cc3ccccc3Cl)S2)cc1 (centres undefined) | 25.4 µg/mL (≈ 76.9 µM)
COc1cccc2sc(Nc3nnc(-c4ccc(F)cc4)o3)nc12 | 2.97 µg/mL (≈ 8.68 µM)
O=C(CCSc1ccccc1)Nc1nnc(-c2cccs2)o1 | 7.87 µg/mL (≈ 23.7 µM)
COc1cc2c3nnc(-c4ccc(Cl)cc4)c-3cn(Cc3ccccc3F)c2cc1OC | 22.2 µg/mL (≈ 49.7 µM)
CC(=O)c1ccc(C(=O)Nc2nnc(-c3ccc(Cl)cc3)o2)cc1 | 1.8 µg/mL (≈ 5.27 µM)
Clc1cccc(N2CCN(c3nc(Nc4ccccc4)c4nccnc4n3)CC2)c1 | 4.58 µg/mL (≈ 11 µM)
CCCCOc1cccc(C(=O)Nc2nnc(-c3ccc(C)cc3C)o2)c1 | 2.63 µg/mL (≈ 7.2 µM)
O=C(Nc1nnc(-c2ccccc2)o1)c1cc(-c2cccs2)nc2ccccc12 | 0.72 µg/mL (≈ 1.81 µM)
Cc1ccc(-c2nnc(NC(=O)C(C)C)o2)c(C)c1 | 8.43 µg/mL (≈ 32.5 µM)
CC(=O)N1CCc2c(sc(NC(=O)c3cccc(C)c3)c2C(N)=O)C1 | 17.1 µg/mL (≈ 47.8 µM)
O=C(NNc1nc2ccc(Cl)cc2s1)c1nc2ccccc2s1 | 3.15 µg/mL (≈ 8.73 µM)
O=C(Nc1cccc(Br)c1)c1ccc([N+](=O)[O-])s1 | < 0.2 µg/mL
O=C(CCOc1ccccc1)Nc1nnc(-c2cc(Cl)ccc2Cl)o1 | 1.79 µg/mL (≈ 4.73 µM)
CCc1ccc(-c2ccc(SCC(N)=O)nn2)cc1 | 4.66 µg/mL (≈ 17 µM)
Cc1[nH]c2ccccc2c1SCCNC(=O)c1cc2ccccc2oc1=O | < 0.2 µg/mL
O=C(NNc1nc2c(F)cc(F)cc2s1)c1nc2ccccc2s1 | 21.8 µg/mL (≈ 60.2 µM)
O=C(CCCN1C(=O)/C(=C/c2ccco2)SC1=S)Nc1ccccc1 | 2.96 µg/mL (≈ 7.95 µM)
COc1ccc(Cn2cc3c(-c4ccccc4)nnc-3c3cc(OC)c(OC)cc32)cc1 | 6.64 µg/mL (≈ 15.6 µM)
CC(=O)N1CCc2c(sc(NC(=O)C(C)C)c2-c2nc3ccccc3s2)C1 | 13.5 µg/mL (≈ 33.7 µM)

Structure (SMILES) | IC90
C/C(=N\Nc1nc(=O)[nH]nc1C)c1ccccc1O | < 0.2 µg/mL
O=C(Nc1nnc(-c2cc(Cl)ccc2Cl)o1)c1cccc(Cl)c1 | 31.7 µg/mL (≈ 86.1 µM)
O=C(Nc1nnc(-c2cccnc2)o1)c1cc(Cl)ccc1Cl | 27.9 µg/mL (≈ 83.1 µM)
Cc1cc(C)cc(OCCCn2c(CO)nc3ccccc32)c1 | 14 µg/mL (≈ 45 µM)
O=C(/C=C/c1ccccc1Cl)Nc1nnc(C2=COCCO2)o1 | 26.7 µg/mL (≈ 79.9 µM)
CCc1ccc2nc(Nc3nc4ccc(S(C)(=O)=O)cc4s3)sc2c1 | 7.52 µg/mL (≈ 19.3 µM)
CCOC(=O)N1CCc2c(sc(NC(C)=O)c2C(=O)OC)C1 | 14 µg/mL (≈ 43 µM)
O=C(Nc1nnc(-c2cccs2)o1)c1ccc([N+](=O)[O-])s1 | 1.69 µg/mL (≈ 5.24 µM)
Cc1ccc2sc(N(CCCn3ccnc3)C(=O)c3cccs3)nc2c1C | 0.54 µg/mL (≈ 1.36 µM)
COc1cccc(C(=O)N(CCCn2ccnc2)c2nc3c(C)cccc3s2)c1OC | 4.2 µg/mL (≈ 9.62 µM)
O=C(Nc1nnc(-c2cccs2)o1)c1cc(-c2ccccc2)nc2ccccc12 | 0.53 µg/mL (≈ 1.33 µM)
Cc1ccccc1C(=O)Nc1nnc(-c2cccnc2)o1 | 50.1 µg/mL (≈ 179 µM)
O=C(CN1CCOCC1)Nc1ncc(Cc2cc(Cl)cc(Cl)c2)s1 | 14.9 µg/mL (≈ 38.5 µM)
CCc1ccc(-c2nnc3c4cc(OC)c(OC)cc4n(Cc4ccccc4F)cc2-3)cc1 | 8.11 µg/mL (≈ 18.4 µM)
COc1ccc(-c2nnc3c4cc(OC)ccc4n(Cc4ccccc4F)cc2-3)cc1 | 9.08 µg/mL (≈ 22 µM)
COc1ccc2nc(Nc3nc4c(s3)C(=O)CC(C)(C)C4)sc2c1 | 15.7 µg/mL (≈ 43.7 µM)
O=C(Nc1nnc(-c2cc(Cl)ccc2Cl)o1)C1=COCCO1 | 25.7 µg/mL (≈ 75.2 µM)
CC1(C)CC(=O)c2sc(NC(=O)c3ccc(NS(=O)(=O)c4ccc(Cl)cc4)cc3)nc2C1 | 15.5 µg/mL (≈ 31.7 µM)
O=C(Nc1nnc(-c2ccncc2)o1)c1cc(Cl)ccc1Cl | 6.58 µg/mL (≈ 19.6 µM)
